Source: PubChem BioAssay (NCI)
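Method: 48-hour compound exposure of cells in 96-well plates, five concentrations, linear interpolation of endpoints. GI50 is the concentration that inhibits growth by half. At the TGI there is no net growth.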

Columns and labels:
Assay in all cases: NCI anticancer screen, dose series, 48 h
MOLT-4 leukemia = system: MOLT-4 leukemia
SF-539 CNS = system: SF-539 CNS
HL-60(TB) leukemia = system: HL-60(TB) leukemia
A549 NSCLC = system: A549 NSCLC
M14 melanoma = system: M14 melanoma
OVCAR-4 ovarian = system: OVCAR-4 ovarian
SR leukemia = system: SR leukemia
786-0 renal = system: 786-0 renal
A498 renal = system: A498 renal
ACHN renal = system: ACHN renal

SMILES	TGI (MOLT-4 leukemia) [µM]	TGI (SF-539 CNS) [µM]	TGI (HL-60(TB) leukemia) [µM]	TGI (A549 NSCLC) [µM]	TGI (M14 melanoma) [µM]	TGI (OVCAR-4 ovarian) [µM]	TGI (SR leukemia) [µM]	TGI (786-0 renal) [µM]	TGI (A498 renal) [µM]	TGI (ACHN renal) [µM]	GI50 (MOLT-4 leukemia) [µM]	GI50 (SF-539 CNS) [µM]	GI50 (HL-60(TB) leukemia) [µM]	GI50 (A549 NSCLC) [µM]	GI50 (M14 melanoma) [µM]	GI50 (OVCAR-4 ovarian) [µM]	GI50 (SR leukemia) [µM]	GI50 (786-0 renal) [µM]	GI50 (ACHN renal) [µM]	GI50 (A498 renal) [µM]
COC(COC(N)=O)C1=C(N2CC2)C(=O)C(C)=C(N2CC2)C1=O (stereo not drawn)	7.26	0.202	2.72	2.21	0.147	0.413	2.19	0.186	0.267	0.0449	–	–	–	–	–	–	–	–	–	–
Cc1cc2nc(NCCN)n(Cc3ccc(F)c(Cl)c3)c2cc1C	22.1	26	11.7	32.2	7.07	28.3	6.04	23.3	–	24.7	6.42	11.7	2.83	17.8	2.52	14	2.03	10.2	11.2	–
CCc1cccc(C(C)C)c1NC(=O)C(=O)C1C(=O)Nc2ccccc2S1=O (stereo not drawn)	> 100	> 100	–	> 100	> 100	> 100	> 100	> 100	> 100	> 100	–	–	–	–	–	–	–	–	–	–
CN(CCS(=O)(=O)N1C(=O)C2CCCN2C(=O)[C@@H]1Cc1ccccc1)C(=O)OCc1ccccc1 (stereo partly drawn)	53.5	> 100	27.4	> 100	> 100	> 100	> 100	> 100	> 100	73.4	–	–	–	–	–	–	–	–	–	–
O=C1Nc2c(ccc(Cl)c2Cl)/C1=C/c1cc(Br)c(O)c(Br)c1	> 76.4	14.8	> 23.8	> 100	> 100	> 100	> 39.3	78.7	23.3	> 86.4	4.37	3.21	3.01	7.7	3.14	5.69	2.77	6.62	9.86	3.9
COc1ccc(Cc2c3cc(O)c(=O)cc-3ccn2C)cc1	> 81	70.4	> 100	> 100	30.5	> 100	37	> 66.8	> 100	> 100	–	–	–	–	–	–	–	–	–	–
O=C(O)c1cc(-c2ccc3cc4c(cc3c2)OCO4)nc2ccccc12	> 100	> 100	> 100	> 100	> 100	> 100	88.9	> 100	75.1	> 100	–	–	–	–	–	–	–	–	–	–
COc1ccc2c(c1)C(=O)c1c-2n(CCCN(C)C)c(=O)c2ccccc12	12	0.979	2.64	0.559	1.87	6.87	11.3	2.3	1.72	0.503	< 0.0307	0.282	0.321	0.119	0.483	0.808	–	0.176	0.116	0.377
Cc1nc2sccn2c1C(=O)NN	> 100	> 100	> 100	> 100	–	–	> 100	> 100	–	> 100	–	–	–	–	–	–	–	–	–	–
